Laboratory results: patent publication US8778882B2, “Agent for strengthening calcium containing tissue and use thereof” (Hayashibara Co., Ltd., priority 2002, dated 2014)

Columns and labels:
[1] = test system: mouse pre-osteoblastic cell MC3T3-E1; experiment: Alkaline phosphatase activity in mouse pre-osteoblastic cells; format: cell-based; details: for activity at 20 µM: Mus musculus; for alkaline phosphatase activity in vitro: glycosides
Method: To increase number of osteoblastic cells having calcium-deposition activity is important for increasing bone mass. […] The activity is at low level in pre-osteoblastic cells and at high level in osteoblastic cells differentiated form the pre-osteoblastic cells. […] Since final ethanol concentration in the medium is 0.2% (v/v), α-MEM medium containing 0.2% (v/v) ethanol was prepared as a negative control. The cells were inoculated for eight days as changing the medium therewith to fresh medium with or without each sample per three days. Alkaline phosphatase activity was measured using “Alkaline Phospha B-Test Wako” (commercialized by Wako Pure Chemical Industries, Osaka, Japan) according with Kajii et al (Archives of Oral Biology, Vol. 44, pp. 233-241, (1999)). Briefly, to the above described mouse pre-osteoblastic cells washed with 1 ml of 0.25 M sucrose solution three times after removing the medium were added 0.45 ml of 50 mM carbonate salt buffer (pH9.8) containing 1 mM magnesium chloride and 50 mM sucrose and 0.05 ml of 3.4 mM disodium p-nitrophenyl phosphate in due course. The mixture was incubated at 25° C. for five minutes and admixed with 1.5 ml of 0.6N sodium hydroxide as a reaction terminator. Absorbance 405 nm of p-nitrophenol generated by alkaline phosphatase in the resulting mixture was measured, and the obtained values were used as values as alkaline phosphatase activity. […] The experiment was performed by the method according to Experiment 1 except that culture day in the medium containing each sample was three, six or nine, and concentration of each sample was 5, 10 or 20 μM. […] As a negative control, mediums containing ethanol in the above concentration were prepared for calculating relative activity to the activity of each control.

[2] = test system: mouse pre-osteoblastic cell MC3T3-E1; experiment: Calcium deposition amount by Calcium C Test Wako; format: cell-based; details: for Relative Calcium Deposition Amount (%) / activity at 20 µM: flavonoid comparison, Calcium C Test Wako, relative to 0.2% (v/v) ethanol negative control; for activity at 20 µM: Mus musculus, MC3T3-E1; for calcium deposition in vitro: glycosides
Excerpt: Other flavonoid compounds than kaempferol or hesperetin were investigated where they have the same effect or not. Flavone (commercialized by Kanto Kagaku, Tokyo, Japan), apigenin (commercialized by Funakoshi, Co., Ltd., Tokyo, Japan), flavonol (commercialized by Tokyo Kasei Kogyo, Co., Ltd., Tokyo, Japan), quercetin (commercialized by Kanto Kagaku, Tokyo, Japan), kaempferol (commercialized by Funakoshi, Co., Ltd., Tokyo, Japan), rutin (commercialized by Kanto Kagaku, Tokyo, Japan), flavanone (commercialized by Kanto Kagaku, Tokyo, Japan), naringenin (commercialized by Ardrich Corporation), hesperetin (commercialized by Funakoshi, Co., Ltd., Tokyo, Japan), hesperidin (commercialized by Kanto Kagaku, Tokyo, Japan), chalcone (commercialized by Merk Corporation), fuloretin (commercialized by Sigma Corporation), catechin (commercialized by Sigma Corporation), ipriflavone (commercialized by Daito Corporation, Toyama, Japan), taxifolin (commercialized by Funakoshi, Co., Ltd., Tokyo, Japan), sulfuretin (commercialized by Funakoshi, Co., Ltd.; Tokyo, Japan), or cyanidin (commercialized by Funakoshi, Co., Ltd., Tokyo, Japan) was selected as test samples. Alkaline phosphatase activity was measured by the method of Experiment 1. Calcium deposition was measured by usual method using “Calcium C Test Wako” (commercialized by Wako Pure Chemical Industries, Osaka, Japan), briefly, cultured cells were washed with 1 ml of Dulbecco phosphate buffer saline three times after removing the medium. To the resultant was added 0.5 ml of 2N hydrochloric acid to resolve deposited calcium. To 5 μl of the resultant solution were added 0.5 ml of 0.88M monoethanolamine buffer (pH11) and 0.05 ml of 0.63 mM o-cresolphthalein complexone solution (binding to calcium ion to form chelate complex) containing 69 mM 8-quinolinol and mixed. Calcium amount per one hole of the plate was calculated by measuring absorbance 570 nm of the resultants and standardizing with a standard calcium solution. The judgement of alkaline phosphatase activity or calcium deposition amount of each sample was to calculate the relative activity or the relative calcium deposition amount to the negative control (only medium containing 0.2% (v/v) ethanol) and to compare each other.
The enhancement of calcium deposition between kaempferol and ipripfavone were compared. Test samples and their adding manner were same as Experiment 4. Calcium deposition amount was measured by usual method using “Calcium C Test Wako” (commercialized by Wako Pure Chemical Industries, Osaka, Japan); briefly, cultured cells were washed with 1 ml of Dulbecco phosphate buffer saline three times after removing the medium. To the resultant was added 0.5 ml of 2N hydrochloric acid to resolve deposited calcium. To 5 μl of the resolving solution were added 0.5 ml of 0.88M monoethanolamine buffer (pH11) and 0.05 ml of 0.63 mM o-cresolphthalein complexone solution (binding to calcium ion to form chelate complex) containing 69 mM 8-quinolinol and mixed, Calcium amount per one hole of the plate was calculated by measuring absorbance 570 nm of the resultants and standardizing with a standard calcium solution.
Kaempferol or hesperetin in combination with ipriflavone, or a kind of isoflavones, was investigated whether to enhance calcium deposition or not. Methods for preparing samples and culturing the cells were the same method described in Experiment 1 except culturing the cells for five days, Method for measuring calcium was the same method described in Experiment 3 and 5. Final ethanol concentration of the medium containing each sample was adjusted as same concentration.

Rat Femur and Tibia = experiment: Enhancing calcium deposition in rat femur and tibia; format: in vivo; details: for Calcium Content Per One Dried Bone / Dried Bone Mass: rats fed sample in high sucrose feeding stuff for eight weeks; for calcium deposition in femur and tibia: rats, eight weeks feeding
Method: The experiment was performed using six three-weeks-aged female Wister rats per one group. The rats were fed with high sucrose feeding stuff containing ingredients listed Table 11 (In the Table, each value means “weight %”.) and one part by weight of each test sample; hesperetin (commercialized by Funakoshi, Co., Ltd., Tokyo, Japan), quercetin (commercialized by Tokyo Kasei Kogyo, Co., Ltd., Tokyo, Japan), α-glycosyl hesperidin (product name “αG HESPERIDINE”, commercialized by Hayashibara Shoji Inc., Okayama, Japan), α-glycosyl rutin (product name “αG RUTIN P”, commercialized by Hayashibara Shoji Inc., Okayama, Japan), or ipriflavone (commercialized by Daito Corporation, Toyama, Japan) (positive control). As a negative control, rats fed with feedstuff containing one part by weight of sucrose replacing test sample were prepared. The rats were allowed to freely take water. The rats were killed after eight weeks, and then, their femurs and tibias were excised. Each femur or tibia dried at 100° C. for about six hours was measured by electric even balance for high precision analysis (product name “HA180M/12QM”, commercialized by A & D Co, Ltd., Tokyo, Japan), and then, each bone was placed into a crucible and burned in an incinerator at 950° C. for six hours. The cinerary resultant was resolved in hydrochloric solution and provided for measuring calcium amount by atomic absorption photometer. Calcium amount per one dried bone was calculated and compared each other.

[3] = flavonoid comparison, method of Experiment 1, relative to 0.2% (v/v) ethanol negative control
[4] = MC3T3-E1, 20 mM each compound (so in the source), eight days, relative to 0.2% (v/v) ethanol negative control
[5] = MC3T3-E1, flavonoid comparison, method of Experiment 1, relative to 0.2% (v/v) ethanol negative control
[6] = 192 h, MC3T3-E1, 20 mM each compound (so in the source), eight days, relative to 0.2% (v/v) ethanol negative control

Compound: O=C1/C(=C/c2ccc(O)c(O)c2)Oc2cc(O)ccc21 [Sulfuretin]
- Relative Alkaline Phosphatase Activity (%) [1, 3]: 126%
- Relative Calcium Deposition Amount (%) [2]: 157%

Compound: C[C@@H]1O[C@@H](OC[C@H]2O[C@@H](Oc3c(-c4ccc(O)c(O)c4)oc4cc(O)cc(O)c4c3=O)[C@H](O)[C@@H](O)[C@@H]2O)[C@H](O)[C@H](O)[C@H]1O [Rutin]
- Relative Alkaline Phosphatase Activity (%) [1, 3]: 109%
- Relative Calcium Deposition Amount (%) [2]: 74%

Compound: Cc1cc(=O)oc2cc(O)ccc12 [4-Methylumbelliferone]
- Relative Alkaline Phosphatase Activity (%) [1, 4]: 96%

Compound: tocopherol
- Relative Alkaline Phosphatase Activity (%) [1, 4]: 100%

Compound: Phloretin
- Relative Alkaline Phosphatase Activity (%) [1, 3]: 109%
- Relative Calcium Deposition Amount (%) [2]: 238%

Compound: O=c1c(O)c(-c2ccccc2)oc2ccccc12 [Flavonol]
- activity at 20 µM [1, 5]: 139%
- activity at 20 µM [2]: 295%

Compound: α-glycosyl hesperidin
- alkaline phosphatase activity in vitro [1]: did not demonstrate
- calcium deposition in vitro [2]: did not demonstrate
- Calcium Content Per One Dried Bone (Rat Femur and Tibia; Femur): 126.9 mg
- Dried Bone Mass (Rat Femur and Tibia; Femur): 0.454 g
- Calcium Content Per One Dried Bone (Rat Femur and Tibia; Tibia): 109.5 mg
- Dried Bone Mass (Rat Femur and Tibia; Tibia): 0.349 g
- calcium deposition in femur and tibia (Rat Femur and Tibia): increase of calcium deposition content

Compound: α-glycosyl rutin
- alkaline phosphatase activity in vitro [1]: did not demonstrate
- calcium deposition in vitro [2]: did not demonstrate
- Calcium Content Per One Dried Bone (Rat Femur and Tibia; Femur): 119.9 mg
- Dried Bone Mass (Rat Femur and Tibia; Femur): 0.439 g
- Calcium Content Per One Dried Bone (Rat Femur and Tibia; Tibia): 107.7 mg
- Dried Bone Mass (Rat Femur and Tibia; Tibia): 0.343 g
- calcium deposition in femur and tibia (Rat Femur and Tibia): increase of calcium deposition content

Compound: CC(C)Oc1ccc2c(=O)c(-c3ccccc3)coc2c1 [Ipriflavone, reference compound]
- Relative Alkaline Phosphatase Activity (%) [1, 3]: 114%
- Relative Calcium Deposition Amount (%) [2]: 263%
- Calcium Content Per One Dried Bone (Rat Femur and Tibia; Femur): 120.0 mg
- Dried Bone Mass (Rat Femur and Tibia; Femur): 0.428 g
- Calcium Content Per One Dried Bone (Rat Femur and Tibia; Tibia): 106.0 mg
- Dried Bone Mass (Rat Femur and Tibia; Tibia): 0.338 g

Compound: O=C1c2c(O)cc(O)cc2O[C@H](c2ccc(O)c(O)c2)[C@H]1O [Taxifolin]
- activity at 20 µM [1, 5]: 98%
- activity at 20 µM [2]: 234%

Compound: O=C1C[C@@H](c2ccc(O)cc2)Oc2cc(O)cc(O)c21 [Naringenin]
- activity at 20 µM [1, 5]: 110%
- activity at 20 µM [2]: 271%

Compound: O.Oc1cc(O)c2c(c1)O[C@H](c1ccc(O)c(O)c1)[C@@H](O)C2 [Catechin]
- Relative Alkaline Phosphatase Activity (%) [1, 3]: 118%
- Relative Calcium Deposition Amount (%) [2]: 247%

Compound: O=c1c(O)c(-c2ccc(O)c(O)c2)oc2cc(O)cc(O)c12 [Quercetin]
- activity at 20 µM [1, 5]: 120%
- activity at 20 µM [2]: 118%
- Calcium Content Per One Dried Bone (Rat Femur and Tibia; Femur): 120.3 mg
- Dried Bone Mass (Rat Femur and Tibia; Femur): 0.456 g
- Calcium Content Per One Dried Bone (Rat Femur and Tibia; Tibia): 108.7 mg
- Dried Bone Mass (Rat Femur and Tibia; Tibia): 0.352 g

Compound: Oc1cc(O)c2cc(O)c(-c3ccc(O)c(O)c3)[o+]c2c1 [Cyanidin]
- Relative Alkaline Phosphatase Activity (%) [1, 3]: 115%
- Relative Calcium Deposition Amount (%) [2]: 216%

Compound: O=C(/C=C/c1ccccc1)c1ccccc1 [Chalcone]
- activity at 20 µM [1, 5]: 105%
- activity at 20 µM [2]: 104%

Compound: COc1cc(C=O)ccc1O [Vanillin, vanillin]
- activity at 20 µM [1, 6]: 89%

Compound: O=c1cc(-c2ccc(O)cc2)oc2cc(O)cc(O)c12 [Apigenin]
- activity at 20 µM [1, 5]: 128%
- activity at 20 µM [2]: 247%

Compound: CC1=C(/C=C/C(C)=C/C=C/C(C)=C/C=C/C=C(C)/C=C/C=C(C)/C=C/C2=C(C)CCCC2(C)C)C(C)(C)CCC1 [β-Carotene, β-carotene]
- activity at 20 µM [1, 6]: 81%

Compound: O=C1CC(c2ccccc2)Oc2ccccc21 (stereo not drawn) [Flavanone]
- activity at 20 µM [1, 5]: 109%
- activity at 20 µM [2]: 311%

Compound: Cn1c(=O)c2c(ncn2C)n(C)c1=O [Caffein, caffein]
- activity at 20 µM [1, 6]: 100%

Compound: O=c1cc(-c2ccccc2)oc2ccccc12 [Flavone]
- activity at 20 µM [1, 5]: 103%
- activity at 20 µM [2]: 158%

Compound: COc1ccc([C@@H]2CC(=O)c3c(O)cc(O[C@@H]4O[C@H](CO[C@@H]5O[C@@H](C)[C@H](O)[C@@H](O)[C@H]5O)[C@@H](O)[C@H](O)[C@H]4O)cc3O2)cc1O [Hesperidin]
- enhancement of alkaline phosphatase activity, daily course (FIG. 1) ([1]; 5, 10 or 20 μM, culture day three, six or nine, relative to ethanol control): remarkable enhancement of alkaline phosphatase activity at third day
- Relative Alkaline Phosphatase Activity (%) [1, 3]: 107%
- alkaline phosphatase activity in vitro [1]: did not demonstrate
- Relative Calcium Deposition Amount (%) [2]: 118%
- calcium deposition in vitro [2]: did not demonstrate
- calcium deposition in femur and tibia (Rat Femur and Tibia): increase of calcium deposition content

Compound: CC1CCC(C(C)C)C(O)C1 (stereo not drawn) [Menthol, menthol]
- activity at 20 µM [1, 6]: 95%

Compound: CC1(C)[C@@H](O[C@H]2O[C@H](C(=O)O)[C@@H](O)[C@H](O)[C@H]2O[C@@H]2O[C@H](C(=O)O)[C@@H](O)[C@H](O)[C@H]2O)CC[C@]2(C)[C@H]3C(=O)C=C4[C@@H]5C[C@@](C)(C(=O)O)CC[C@]5(C)CC[C@@]4(C)[C@]3(C)CC[C@@H]12 [Glycyrrizinic Acid]
- Relative Alkaline Phosphatase Activity (%) [1, 4]: 97%
